Laboratory results: US12195482B1 (Arcus Biosciences, Inc., priority 2022, dated 2025)

Tests used:
recombinant human MER = molecular target: T1, recombinant human MER (Homo sapiens, UniProt Q12866); test: Biochemical potency, HTRF KinEASE-TK kinase assay; settings: 1 nM MER, 700 μM ATP
T1 construct: purchased Invitrogen
T1 sequence (Q12866 21-999): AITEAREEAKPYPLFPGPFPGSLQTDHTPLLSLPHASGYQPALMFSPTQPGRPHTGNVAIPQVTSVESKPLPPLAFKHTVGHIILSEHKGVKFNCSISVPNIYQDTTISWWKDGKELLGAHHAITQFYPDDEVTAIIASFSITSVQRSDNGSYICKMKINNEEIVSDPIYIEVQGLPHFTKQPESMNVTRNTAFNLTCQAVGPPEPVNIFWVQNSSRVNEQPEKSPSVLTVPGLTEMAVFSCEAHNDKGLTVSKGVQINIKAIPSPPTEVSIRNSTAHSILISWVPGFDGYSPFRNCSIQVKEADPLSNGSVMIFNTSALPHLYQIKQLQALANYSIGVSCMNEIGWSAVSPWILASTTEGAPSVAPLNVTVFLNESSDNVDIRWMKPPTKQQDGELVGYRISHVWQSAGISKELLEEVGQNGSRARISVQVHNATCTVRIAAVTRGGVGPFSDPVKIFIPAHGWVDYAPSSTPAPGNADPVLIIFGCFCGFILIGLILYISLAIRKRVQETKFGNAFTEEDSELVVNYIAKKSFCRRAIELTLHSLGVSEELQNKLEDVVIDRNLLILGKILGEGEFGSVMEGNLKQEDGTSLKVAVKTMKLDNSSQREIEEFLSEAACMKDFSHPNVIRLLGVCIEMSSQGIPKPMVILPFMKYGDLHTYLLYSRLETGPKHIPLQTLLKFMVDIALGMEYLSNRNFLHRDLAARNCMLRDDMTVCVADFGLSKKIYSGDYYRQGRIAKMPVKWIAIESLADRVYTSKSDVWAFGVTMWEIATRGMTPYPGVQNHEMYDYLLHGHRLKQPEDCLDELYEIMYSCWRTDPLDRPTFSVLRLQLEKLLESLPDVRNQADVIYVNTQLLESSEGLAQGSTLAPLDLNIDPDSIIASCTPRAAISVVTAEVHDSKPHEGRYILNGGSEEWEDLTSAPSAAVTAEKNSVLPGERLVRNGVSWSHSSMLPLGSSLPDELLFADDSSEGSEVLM
Summary of the method: (§1)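 Enzyme (AXL 5 nM; TYRO3 or MER 1 nM final) was preincubated with compound for 1 h at RT, then reacted for 2 h at RT with 800 nM biotinylated TK substrate and 700 µM ATP in HEPES pH 7.4, MgCl2, DTT, BSA, 1% DMSO. Percent activity came from the HTRF 665/620 ratio.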

recombinant human TYRO3 = molecular target: T2, recombinant human TYRO3 (Homo sapiens, UniProt Q06418); test: Biochemical potency, HTRF KinEASE-TK kinase assay; settings: 1 nM TYRO3, 700 μM ATP
T2 construct: purchased Invitrogen
T2 sequence (Q06418 41-890): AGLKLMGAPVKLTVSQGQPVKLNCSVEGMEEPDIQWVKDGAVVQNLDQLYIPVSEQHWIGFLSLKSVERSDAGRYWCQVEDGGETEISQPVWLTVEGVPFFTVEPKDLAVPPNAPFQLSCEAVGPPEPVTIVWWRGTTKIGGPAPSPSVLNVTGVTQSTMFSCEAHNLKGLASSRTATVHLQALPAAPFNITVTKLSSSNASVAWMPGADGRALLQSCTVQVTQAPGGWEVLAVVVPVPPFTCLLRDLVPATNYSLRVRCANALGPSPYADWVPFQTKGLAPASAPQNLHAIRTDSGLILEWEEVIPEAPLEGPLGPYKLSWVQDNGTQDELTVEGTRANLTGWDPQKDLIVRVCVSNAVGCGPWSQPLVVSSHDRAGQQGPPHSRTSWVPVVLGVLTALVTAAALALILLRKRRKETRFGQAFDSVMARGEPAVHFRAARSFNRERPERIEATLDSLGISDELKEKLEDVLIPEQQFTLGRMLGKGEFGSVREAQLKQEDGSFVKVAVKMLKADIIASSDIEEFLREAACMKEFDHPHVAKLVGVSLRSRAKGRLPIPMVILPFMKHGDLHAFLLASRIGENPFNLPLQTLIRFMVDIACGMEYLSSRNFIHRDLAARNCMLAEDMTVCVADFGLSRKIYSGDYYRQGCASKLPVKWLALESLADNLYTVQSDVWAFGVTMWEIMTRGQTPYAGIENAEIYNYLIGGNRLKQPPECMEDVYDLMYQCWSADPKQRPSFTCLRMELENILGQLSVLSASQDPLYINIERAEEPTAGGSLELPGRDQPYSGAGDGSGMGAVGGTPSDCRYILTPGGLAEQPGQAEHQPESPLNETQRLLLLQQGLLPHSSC
Summary of the method: as §1

| Compound | IC50 (recombinant human MER) [nM] | IC50 (recombinant human TYRO3) [nM] |
| --- | --- | --- |
| Cc1cnc(-c2ccc(-c3c[nH]c4ncc(-c5ccc6c(c5)CC[C@@](C)(N5CCC[C@H]5C)CC6)cc34)cc2)c(C)n1 [Example 57, 3,5-Dimethyl-2-(4-{5-[(7S)-7-methyl-7-[(2R)-2-methylpyrrolidin-1-yl]-6,7,8,9-tetrahydro-5H-benzo[7]annulen-2-yl]-1H-pyrrolo[2,3-b]pyridin-3-yl}phenyl)pyrazine] | 100 to 1000 | 100 to 1000 |
| N#Cc1cccnc1-c1ccc(-c2n[nH]c3ncc(-c4ccc5c(c4)CC[C@@H](N4C6COCC4C6)CC5)cc23)cc1 [Example 52, 2-(4-{5-[(7S)-7-{3-Oxa-6-azabicyclo[3.1.1]heptan-6-yl}-6,7,8,9-tetrahydro-5H-benzo[7]annulen-2-yl]-1H-pyrazolo[3,4-b]pyridin-3-yl}phenyl)pyridine-3-carbonitrile] | 100 to 1000 | 100 to 1000 |
| Cc1cnc(-c2ccc(-c3c[nH]c4ncc(-c5ccc6c(c5)CC[C@@H](N5CCCC5)CC6)cc34)cc2)c(C)n1 [Example 59, 3,5-Dimethyl-2-(4-{5-[(7S)-7-(pyrrolidin-1-yl)-6,7,8,9-tetrahydro-5H-benzo[7]annulen-2-yl]-1H-pyrrolo[2,3-b]pyridin-3-yl}phenyl)pyrazine] | 100 to 1000 | 100 to 1000 |
| FC(F)(F)c1cccnc1-c1ccc(-c2n[nH]c3ncc(-c4ccc5c(c4)CC[C@@H](N4C6COCC4C6)CC5)cc23)cc1 [Example 88, 6-[(7S)-3-[3-[4-[3-(Trifluoromethyl)pyridin-2-yl]phenyl]-1H-pyrazolo[3,4-b]pyridin-5-yl]-6,7,8,9-tetrahydro-5H-benzo[7]annulen-7-yl]-3-oxa-6-azabicyclo[3.1.1]heptane] | 100 to 1000 | 100 to 1000 |
| Cc1cc(C)c(-c2ccc(-c3n[nH]c4ncc(-c5ccc6c(c5)CC[C@@H](N5C7COCC5C7)CC6)cc34)cc2)nn1 [Example 77, 6-[(7S)-2-{3-[4-(4,6-Dimethylpyridazin-3-yl)phenyl]-1H-pyrazolo[3,4-b]pyridin-5-yl}-6,7,8,9-tetrahydro-5H-benzo[7]annulen-7-yl]-3-oxa-6-azabicyclo[3.1.1]heptane] | 100 to 1000 | < 100 |
| COc1cccc(-c2ccc(-c3n[nH]c4ncc(-c5ccc6c(c5)CC[C@@H](N5C7COCC5C7)CC6)cc34)cc2)n1 [Example 162, 6-[(7S)-2-{3-[4-(6-Methoxypyridin-2-yl)phenyl]-2H-pyrazolo[3,4-b]pyridin-5-yl}-6,7,8,9-tetrahydro-5H-benzo[7]annulen-7-yl]-3-oxa-6-azabicyclo[3.1.1]heptane] | > 1000 | > 1000 |
| C[C@@H]1CCCN1[C@@]1(C)CCc2ccc(-c3cnc4[nH]nc(-c5ccc(-c6ncco6)cc5)c4c3)cc2CC1 [Example 90, 2-(4-{5-[(7S)-7-Methyl-7-[(2R)-2-methylpyrrolidin-1-yl]-6,7,8,9-tetrahydro-5H-benzo[7]annulen-2-yl]-2H-pyrazolo[3,4-b]pyridin-3-yl}phenyl)-1,3-oxazole] | 100 to 1000 | 100 to 1000 |
| Cc1cc(C)c(-c2ccc(-c3n[nH]c4ncc(-c5ccc6c(c5)CC[C@@](C)(N5CCC[C@H]5C)CC6)cc34)cc2)nn1 [Example 78, 4,6-Dimethyl-3-(4-{5-[(7S)-7-methyl-7-[(2R)-2-methylpyrrolidin-1-yl]-6,7,8,9-tetrahydro-5H-benzo[7]annulen-2-yl]-1H-pyrazolo[3,4-b]pyridin-3-yl}phenyl)pyridazine] | < 100 | < 100 |
| C[C@@H]1CCCN1[C@@]1(C)CCc2ccc(-c3cnc4[nH]nc(-c5ccc(-c6nccs6)cc5)c4c3)cc2CC1 [Example 91, 2-(4-{5-[(7S)-7-Methyl-7-[(2R)-2-methylpyrrolidin-1-yl]-6,7,8,9-tetrahydro-5H-benzo[7]annulen-2-yl]-2H-pyrazolo[3,4-b]pyridin-3-yl}phenyl)-1,3-thiazole] | 100 to 1000 | 100 to 1000 |

Continued, values first:

| IC50 (recombinant human MER) [nM] | IC50 (recombinant human TYRO3) [nM] | Compound |
| --- | --- | --- |
| 100 to 1000 | 100 to 1000 | Fc1cccnc1-c1ccc(-c2c[nH]c3ncc(-c4ccc5c(c4)CC[C@@H](N4C6COCC4C6)CC5)cc23)cc1 [Example 42, 6-[(7S)-2-{3-[4-(3-Fluoropyridin-2-yl)phenyl]-1H-pyrrolo[2,3-b]pyridin-5-yl}-6,7,8,9-tetrahydro-5H-benzo[7]annulen-7-yl]-3-oxa-6-azabicyclo[3.1.1]heptane] |
| 100 to 1000 | < 100 | Cc1cccnc1-c1ccc(-c2n[nH]c3ncc(-c4ccc5c(c4)CC[C@@H](N4C6COCC4C6)CC5)cc23)cc1 [Example 2, 6-[(7S)-2-{3-[4-(3-Methylpyridin-2-yl)phenyl]-2H-pyrazolo[3,4-b]pyridin-5-yl}-6,7,8,9-tetrahydro-5H-benzo[7]annulen-7-yl]-3-oxa-6-azabicyclo[3.1.1]heptane] |
| 100 to 1000 | 100 to 1000 | Cc1cnc(-c2ccc(-c3c[nH]c4ncc(-c5ccc6c(c5)CC[C@@H](N5C7COCC5C7)CC6)cc34)cc2)c(C)n1 [Example 50, 6-[(7S)-2-{3-[4-(3,5-Dimethylpyrazin-2-yl)phenyl]-1H-pyrrolo[2,3-b]pyridin-5-yl}-6,7,8,9-tetrahydro-5H-benzo[7]annulen-7-yl]-3-oxa-6-azabicyclo[3.1.1]heptane] |
| 100 to 1000 | 100 to 1000 | COc1ccnc(-c2ccc(-c3c[nH]c4ncc(-c5ccc6c(c5)CC[C@@H](N5C7COCC5C7)CC6)cc34)cc2)c1C [Example 86, 6-[(7S)-3-[3-[4-(4-Methoxy-3-methylpyridin-2-yl)phenyl]-1H-pyrrolo[2,3-b]pyridin-5-yl]-6,7,8,9-tetrahydro-5H-benzo[7]annulen-7-yl]-3-oxa-6-azabicyclo[3.1.1]heptane] |
| 100 to 1000 | 100 to 1000 | Fc1cc(-c2c[nH]c3ncc(-c4ccc5c(c4)CC[C@@H](N4C6COCC4C6)CC5)cc23)ccc1-c1ccccn1 [Example 40, 6-[(7S)-2-{3-[3-Fluoro-4-(pyridin-2-yl)phenyl]-1H-pyrrolo[2,3-b]pyridin-5-yl}-6,7,8,9-tetrahydro-5H-benzo[7]annulen-7-yl]-3-oxa-6-azabicyclo[3.1.1]heptane] |
| 100 to 1000 | 100 to 1000 | c1ccc(-c2ccc(-c3c[nH]c4ncc(-c5ccc6c(c5)CC[C@@H](N5C[C@@H]7C[C@H]5CO7)CC6)cc34)cc2)nc1 [Example 33, (1S,4S)-5-[(7S)-3-[3-(4-Pyridin-2-ylphenyl)-1H-pyrrolo[2,3-b]pyridin-5-yl]-6,7,8,9-tetrahydro-5H-benzo[7]annulen-7-yl]-2-oxa-5-azabicyclo[2.2.1]heptane] |
| < 100 | 100 to 1000 | Cc1cc(C)c(-c2ccc(-c3c[nH]c4ncc(-c5ccc6c(c5)CC[C@@H](N5C7COCC5C7)CC6)cc34)cc2)nn1 [Example 80, 6-[(7S)-2-{3-[4-(4,6-Dimethylpyridazin-3-yl)phenyl]-1H-pyrrolo[2,3-b]pyridin-5-yl}-6,7,8,9-tetrahydro-5H-benzo[7]annulen-7-yl]-3-oxa-6-azabicyclo[3.1.1]heptane] |
